Data set [1] concerns the target T1, human glutathione reductase (hGR) (Homo sapiens, UniProt P00390).
T1 sequence (P00390 1-479 isoform P00390-2): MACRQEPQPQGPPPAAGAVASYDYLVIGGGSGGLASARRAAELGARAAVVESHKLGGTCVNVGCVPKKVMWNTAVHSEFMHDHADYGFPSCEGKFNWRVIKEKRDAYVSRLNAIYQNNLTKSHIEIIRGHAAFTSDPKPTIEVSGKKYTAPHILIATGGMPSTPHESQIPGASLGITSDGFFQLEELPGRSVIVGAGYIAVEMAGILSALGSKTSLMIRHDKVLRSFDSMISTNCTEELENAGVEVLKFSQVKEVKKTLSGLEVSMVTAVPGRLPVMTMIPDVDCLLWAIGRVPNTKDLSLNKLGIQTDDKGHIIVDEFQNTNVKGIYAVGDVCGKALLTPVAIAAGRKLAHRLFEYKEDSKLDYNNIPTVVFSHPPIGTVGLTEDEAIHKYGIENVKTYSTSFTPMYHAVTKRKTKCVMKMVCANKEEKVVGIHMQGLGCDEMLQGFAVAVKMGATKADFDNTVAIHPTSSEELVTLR
Kind of data set: hGR assay. Format: biochemical.

Data set [2] has as its target T2, Schistosoma mansoni thioredoxin glutathione reductase (SmTGR) (Schistosoma mansoni, UniProt Q962Y6).
T2 sequence (Q962Y6 1-598): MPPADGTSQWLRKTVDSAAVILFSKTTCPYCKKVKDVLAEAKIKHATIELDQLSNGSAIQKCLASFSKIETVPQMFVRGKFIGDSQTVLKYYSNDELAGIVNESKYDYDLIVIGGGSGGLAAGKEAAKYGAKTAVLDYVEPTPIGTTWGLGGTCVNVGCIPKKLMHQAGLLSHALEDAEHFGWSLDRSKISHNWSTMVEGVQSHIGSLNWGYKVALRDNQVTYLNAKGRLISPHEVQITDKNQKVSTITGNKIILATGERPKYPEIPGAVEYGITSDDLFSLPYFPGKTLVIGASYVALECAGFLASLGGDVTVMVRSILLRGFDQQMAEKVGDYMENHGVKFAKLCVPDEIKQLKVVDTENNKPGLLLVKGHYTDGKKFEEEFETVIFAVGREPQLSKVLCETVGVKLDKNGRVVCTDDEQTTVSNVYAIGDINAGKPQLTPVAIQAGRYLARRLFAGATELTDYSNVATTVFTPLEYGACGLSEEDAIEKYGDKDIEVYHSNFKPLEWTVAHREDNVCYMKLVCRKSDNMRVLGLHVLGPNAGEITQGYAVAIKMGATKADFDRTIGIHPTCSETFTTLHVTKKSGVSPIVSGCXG
Kind of data set: SmTGR DTNB assay. Format: biochemical.

The nature of data set [3]: Cyclic voltammetry of menadione derivatives. Format: physicochemical. The conditions noted are these: for Epa1 / Epc2 / Ipc1/Ipa1 / E^1½ / ΔEp (first wave): DMSO; for Epa1 / Epc2: 0.1 M n-Bu4NPF6, v = 200 mV s^−1, reference KCl(3 M)/Ag/AgCl; for Epa1 / Ipc1/Ipa1 / E^1½: first wave; for Epc2 / E^2½ / Epa2 / Ipc2/Ipa2 / ΔEp (second wave): second wave; for Ipc1/Ipa1 / ΔEp (first wave): 0.1 M n-Bu4NPF6, v = 200 mV s^−1; for E^1½ / E^2½: E½ = (Epc+Epa)/2; for E^1½: 0.1 M n-Bu4NPF6, reference KCl(3 M)/Ag/AgCl; for E^2½ / Epa2 / Ipc2/Ipa2 / ΔEp (second wave): irr: irreversible reduction; for ΔEp (first wave) / ΔEp (second wave): ΔE = Epa-Epc.

In data set [4] the target is T3, Placenta wild type hTrxR (Homo sapiens, UniProt Q16881).
T3 sequence (Q16881 1-499 isoform Q16881-5): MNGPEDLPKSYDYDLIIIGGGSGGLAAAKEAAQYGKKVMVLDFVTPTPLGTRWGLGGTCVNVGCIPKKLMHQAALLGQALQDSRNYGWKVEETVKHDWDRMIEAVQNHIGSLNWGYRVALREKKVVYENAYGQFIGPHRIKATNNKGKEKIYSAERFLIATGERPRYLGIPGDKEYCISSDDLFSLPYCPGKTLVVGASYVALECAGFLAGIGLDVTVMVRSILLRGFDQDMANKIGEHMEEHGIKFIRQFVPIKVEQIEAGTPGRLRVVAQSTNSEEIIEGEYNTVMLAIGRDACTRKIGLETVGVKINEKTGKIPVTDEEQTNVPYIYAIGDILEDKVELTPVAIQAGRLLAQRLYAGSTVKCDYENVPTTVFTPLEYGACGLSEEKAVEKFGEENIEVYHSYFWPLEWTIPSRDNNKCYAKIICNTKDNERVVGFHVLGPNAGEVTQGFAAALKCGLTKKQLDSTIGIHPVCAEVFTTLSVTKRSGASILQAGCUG
Kind of data set: hTrxR DTNB assay. Format: biochemical.

Data set [5] is described as follows: Cytotoxicity against human MRC-5 cells. Format: cell-based. The conditions noted are these: human lung MRC-5 fibroblasts (MRC-5SV2 cells).
Data set [6] concerns the target T3, Placenta wild type hTrxR. Kind of data set: hTrxR Trx assay. Conditions: for IC50: IC50 hTrxR, text summary spanning the Trx assay and the DTNB assay. Format: biochemical.
The test system of another data set is S. mansoni worms. The data set is described as follows: Antischistosomal activity against adult, ex vivo worms. The conditions noted are these: for antischistosomal activity against cultured ex vivo worms: 50 μM compound alone. Format: cell-based, Schistosoma mansoni.
In a further data set the target is T4, Sec498Cys TrxR (Homo sapiens, UniProt Q16881).
T4 sequence (Q16881 with tags, fused parts or gaps isoform Q16881-5): T3 sequence (Q16881 1-499 isoform Q16881-5) with U498C
The data set is described as follows: hTrxR mutant DTNB assay. Format: biochemical.

Data set [7] is described as follows: Glutathionylation reaction kinetics. Format: physicochemical. The conditions noted are these: pH 7.5.
[8] abbreviates: 50 μM with hemoglobin 10 μM, 22h incubation.

Changes are numbered by the printed parent chain. Where two headings read alike, the source gives them in different places. Some results are limits rather than exact numbers.

`CC1=C(COc2ccc(C(=O)O)cc2)C(=O)c2ccccc2C1=O` [Compound 1, 4-((3-Methyl-1,4-dioxo-1,4-dihydronaphthalen-2-yl)methoxy)benzoic acid] showed an IC50 in [1] of 2.3 µM. For the same compound, inhibition in data set [2] was half-maximal at 0.482 µM (IC50). In data set [3], the Epa1 was −0.532 V, the Epc2 is reported as −1.265 V, the Ipc1/Ipa1 amounted to 1.27 and the “E^1½” value is −0.580 V. In data set [3], the “E^2½” value is on record as “irr”, the Epa2 result is on record as “irr”, the Ipc2/Ipa2 result is “irr” and the “ΔEp (first wave)” value came to 96 mV. In addition, in data set [3], the “ΔEp (second wave)” value is recorded as “irr”. At Placenta wild type hTrxR [4], this compound showed an IC50 of 3 µM. Half-maximal inhibition in data set [5] (IC50 at 3 days) required 6.55 µM. For the same compound, on Placenta wild type hTrxR [6], the 50% inhibitory concentration (IC50) lay in the range of 2 to 3 µM. The “antischistosomal activity against cultured ex vivo worms” value (“antischistosomal activity” for short) with S. mansoni worms was “able to kill cultured adult worms”. Half-maximal inhibition on Sec498Cys TrxR (IC50) was put at 40 µM.
In data set [1], `CC1=C(COc2ccc(C#N)cc2)C(=O)c2ccccc2C1=O` [Compound 2, 4-((3-Methyl-1,4-dioxo-1,4-dihydronaphthalen-2-yl)methoxy)benzonitrile] had an IC50 of 8.5 µM. In [2], this compound came in with an IC50 of 0.462 µM. Further, in [3], the Epa1 was −0.492 V, the Epc2 is given as −1.154 V, the Ipc1/Ipa1 came out at 2.29 and the “E^1½” value is given as −0.556 V. Further, in [3], the “E^2½” value was −1.127 V, the Epa2 is reported as −1.100 V, the Ipc2/Ipa2 stood at 2 and the “ΔEp (first wave)” value was 128 mV. For the same compound, the “ΔEp (second wave)” value in data set [3] is listed as 54 mV. The ΔE½ in [3] (ΔE½ = E^1½-E^2½) is recorded as 571 mV. At Placenta wild type hTrxR [4], this compound showed an IC50 of 1.2 µM. The IC50 against Placenta wild type hTrxR [6] fell in the range of 1.2 to 1.5 µM. Besides, in the data set with S. mansoni worms, the “antischistosomal activity” value is listed as “(moderately) active”. In the data set on S. mansoni worms (setting [8]), this compound came in with a female worms killed of 100% and a male worms killed of 50%. Besides, the half-inhibitory concentration (IC50) against Sec498Cys TrxR amounted to 6 µM.
As for `COc1c(F)cc(OCC2=C(C)C(=O)c3ccccc3C2=O)cc1F` [Compound 3, 2-((3,5-Difluoro-4-methoxyphenoxy)methyl)-3-methylnaphthalene-1,4-dione], the IC50 in [1] was greater than 25 µM; in [2] it was 0.407 µM; on Placenta wild type hTrxR [4] it was 2 µM; against Placenta wild type hTrxR [6], 2 µM; at Sec498Cys TrxR it was greater than 100 µM. The “antischistosomal activity” value in the data set with S. mansoni worms is recorded as “most potent”.
For the compound `CC1=C(COc2ccc(Cl)cc2)C(=O)c2ccccc2C1=O` [Compound 4, 2-((4-Chlorophenoxy)methyl)-3-methylnaphthalene-1,4-dione], the IC50 was 5.5 µM in data set [1]; 0.457 µM in [2]; 0.7 µM against Placenta wild type hTrxR [4]; 0.7 µM on Placenta wild type hTrxR [6]; greater than 100 µM at Sec498Cys TrxR.
In data set [1], `CC1=C(COc2ccc(Br)cc2)C(=O)c2ccccc2C1=O` [Compound 5, 2-((4-Bromophenoxy)methyl)-3-methylnaphthalene-1,4-dione] came in with an IC50 greater than 5 µM. The compound further registered an IC50 in data set [2] of 0.784 µM. Moreover, in [3], the Epc2 is on record as −1.158 V, the Ipc1/Ipa1 was determined as 1.89, the “E^2½” value is listed as “irr” and the Epa2 entry is listed as “irr”. In [3], the Ipc2/Ipa2 result was “irr”, the “ΔEp (first wave)” value is reported as 119 mV and the “ΔEp (second wave)” value is given as “irr”. Also, it took 0.8 µM to reach half-maximal inhibition on Placenta wild type hTrxR [4] (IC50). This compound came in with an IC50 against Placenta wild type hTrxR [6] of 0.8 µM. On Sec498Cys TrxR, this compound registered an IC50 greater than 100 µM.
On to `CC1=C(COc2cccc(C(F)(F)F)c2)C(=O)c2ccccc2C1=O` [Compound 6, 2-Methyl-3-((3-(trifluoromethyl)phenoxy)methyl)naphthalene-1,4-dione], for which the IC50 in data set [1] is 0.6 µM; in data set [2] it was 0.166 µM; against Placenta wild type hTrxR [4] it was 1.5 µM; at Placenta wild type hTrxR [6], 1.5 to 3 µM; against Sec498Cys TrxR it was greater than 50 µM. In addition, the “IC50 fold higher for hTrxR than for SmTGR” value against Placenta wild type hTrxR [6] (selectivity hTrxR versus SmTGR) is given as “around 10 fold”. The “antischistosomal activity” value in the data set on S. mansoni worms is “inactive”.
Turning to `N#Cc1ccc(OCC2=C(C(F)F)C(=O)c3ccccc3C2=O)cc1` [Compound 8, 4-((3-(Difluoromethyl)-1,4-dioxo-1,4-dihydronaphthalen-2-yl)methoxy)benzonitrile], the IC50 in data set [1] was 2.1 µM; in data set [2], 0.144 µM; on Placenta wild type hTrxR [4], 0.014 µM; against Placenta wild type hTrxR [6], 0.013 to 0.014 µM; against Sec498Cys TrxR it was 0.37 µM. Moreover, the Epa1 in [3] was −0.244 V. Moreover, the Ipc1/Ipa1 in data set [3] stood at 3.31. Also, in data set [3], the “E^1½” value is given as −0.329 V. The “ΔEp (first wave)” value in data set [3] is 170 mV. The IC50 at 3 days in data set [5] was 6.7 µM. The “decrease of the k2 values compared to the difluoromenadione itself” value in data set [7] is reported as roughly 10 fold. Besides, the “antischistosomal activity” value in the data set with S. mansoni worms was “inactive”. In addition, the “killing of worms whether RBCs were present or not” value with S. mansoni worms (50 μM, with or without human red blood cells (10 μl/well)) is recorded as “no effect on killing the worms”.
On to `O.O.O.O=C([O-])[C@H]([O-])[C@@H]([O-])C(=O)[O-].O=C([O-])[C@H]([O-])[C@@H]([O-])C(=O)[O-].[K+].[K+].[Sb+3].[Sb+3]` [PAT, potassium antimonyl tartrate, reference compound], for which the half-inhibitory concentration (IC50) in data set [2] (read-out: IC50 SmTGR assay, pH 7, 25°C, 100 μM NADPH, 3 mM DTNB) was found to be 0.173 µM. In addition, the dead worms with S. mansoni worms (drug reference, after two days) is listed as 100%.

For orientation: IC50 means the concentration needed to halve the response being measured.

(Values after publication PMC4804716 (The FEBS journal, 2015).)
